Experimental data from the CheMixHub viscosity set.
± gives the uncertainty stated by the source.

Test: xn = mol fraction of the nth substance listed

CC(=O)c1ccccc1 + OCc1ccccc1
303.15 K, 101 kPa
Conditions	viscosity [mPa·s]
x1 = 0.0742	4.331 ± 0.038
x1 = 0.2566	3.618 ± 0.032
x1 = 0.3107	3.42 ± 0.03
x1 = 0.4505	2.937 ± 0.026
x1 = 0.528	2.685 ± 0.024
x1 = 0.5727	2.544 ± 0.022
x1 = 0.7494	2.036 ± 0.018
x1 = 0.8383	1.82 ± 0.016
x1 = 0.9234	1.638 ± 0.015

C[N+](C)(C)C.[Cl-] + Oc1ccccc1
viscosity [mPa·s], 101 kPa
Conditions	303.15 K	313.15 K	323.15 K
x1 = 0.2	23.35 ± 0.75	16.88 ± 0.54	11.9 ± 0.39
x1 = 0.25	36.91 ± 1.2	23.75 ± 0.78	16.31 ± 0.53

O=S(Cl)Cl + [Cl-].[Cl-].[Cl-].[Cl-].[Sn+4]
298.15 K, 101 kPa
Conditions	viscosity [mPa·s]
x1 = 0.402	0.7259 ± 0.019
x1 = 0.517	0.7057 ± 0.018
x1 = 0.803	0.6524 ± 0.017

ClC(Cl)C(Cl)(Cl)Cl + c1ccc(Oc2ccccc2)cc1
298.15 K, 101 kPa
Conditions	viscosity [mPa·s]
x2 = 0.2642	2.64 ± 0.07
x2 = 0.5109	2.97 ± 0.08
x2 = 0.7611	3.36 ± 0.09

C1COCO1 + c1ccccc1
101.3 kPa
Conditions	viscosity [mPa·s]
298.15 K, x2 = 0.0968	0.5944 ± 0.0055
298.15 K, x2 = 0.199	0.597 ± 0.0055
298.15 K, x2 = 0.3032	0.5997 ± 0.0055
298.15 K, x2 = 0.4021	0.6022 ± 0.0055
298.15 K, x2 = 0.505	0.6045 ± 0.0055
298.15 K, x2 = 0.6016	0.6064 ± 0.0055
298.15 K, x2 = 0.704	0.6079 ± 0.0055
298.15 K, x2 = 0.7993	0.6089 ± 0.0055
298.15 K, x2 = 0.8946	0.6094 ± 0.0056
313.15 K, x2 = 0.1006	0.5001 ± 0.0048
313.15 K, x2 = 0.1994	0.5003 ± 0.0048
313.15 K, x2 = 0.299	0.5005 ± 0.0048
313.15 K, x2 = 0.3987	0.5005 ± 0.0048
313.15 K, x2 = 0.5003	0.5004 ± 0.0048
313.15 K, x2 = 0.5985	0.4998 ± 0.0048
313.15 K, x2 = 0.6993	0.4988 ± 0.0047
313.15 K, x2 = 0.7998	0.4976 ± 0.0047
313.15 K, x2 = 0.8987	0.4959 ± 0.0047

CC(=O)c1ccccc1 + c1ccccc1
298.15 K, 101 kPa
Conditions	viscosity [mPa·s]
x1 = 0.5	0.942 ± 0.013
x1 = 0.75	1.27 ± 0.015

CCC(O)CC + c1ccccc1
293.15 K, 101 kPa
Conditions	viscosity [mPa·s]
x1 = 0.00635	0.6446 ± 0.017
x1 = 0.01101	0.6433 ± 0.017
x1 = 0.01253	0.643 ± 0.017
x1 = 0.01995	0.6415 ± 0.017
x1 = 0.02106	0.6411 ± 0.017
x1 = 0.02501	0.641 ± 0.017
x1 = 0.02806	0.6407 ± 0.017
x1 = 0.03344	0.6406 ± 0.017
x1 = 0.03446	0.6405 ± 0.017
x1 = 0.03706	0.6399 ± 0.017
x1 = 0.04178	0.6401 ± 0.017
x1 = 0.04896	0.6415 ± 0.017
x1 = 0.05587	0.6414 ± 0.017
x1 = 0.06451	0.6436 ± 0.017
x1 = 0.08637	0.6486 ± 0.017
x1 = 0.1808	0.6856 ± 0.018
x1 = 0.2725	0.7429 ± 0.02
x1 = 0.3756	0.835 ± 0.022
x1 = 0.468	0.9578 ± 0.025
x1 = 0.6521	1.402 ± 0.037
x1 = 0.7757	1.943 ± 0.051
x1 = 0.8899	2.92 ± 0.077

CCCCCCCC/C=C\CCCCCCCC(=O)OCC(COC(=O)CCCCCCC/C=C\CCCCCCCC)OC(=O)CCCCCCC/C=C\CCCCCCCC + c1ccccc1
viscosity [mPa·s], 101.3 kPa
Conditions	x1 = 0.000368	x1 = 0.000535	x1 = 0.001078	x1 = 0.002049	x1 = 0.004187	x1 = 0.006457	x1 = 0.008697	x1 = 0.01009
298.15 K	0.613 ± 0.0042	0.6159 ± 0.0042	0.6281 ± 0.0043	0.6494 ± 0.0044	0.7009 ± 0.0047	0.7579 ± 0.005	0.8092 ± 0.0053	0.8347 ± 0.0054
303.15 K	0.572 ± 0.004	0.5754 ± 0.004	0.5855 ± 0.004	0.6052 ± 0.0042	0.6529 ± 0.0044	0.7052 ± 0.0047	0.7525 ± 0.005	0.7753 ± 0.0051
308.15 K	0.5349 ± 0.0038	0.5384 ± 0.0038	0.5476 ± 0.0038	0.5658 ± 0.0039	0.6095 ± 0.0042	0.6577 ± 0.0044	0.7013 ± 0.0047	0.7219 ± 0.0048

Cc1cccc(C)n1 + c1ccccc1
viscosity [mPa·s], 101 kPa
Conditions	x1 = 0.0985	x1 = 0.1989	x1 = 0.2996	x1 = 0.3945	x1 = 0.5025	x1 = 0.5994	x1 = 0.6976	x1 = 0.8006	x1 = 0.9013
303 K	0.5677 ± 0.0041	0.58 ± 0.0043	0.607 ± 0.0047	0.6191 ± 0.0051	0.6385 ± 0.0056	0.6614 ± 0.0062	0.6823 ± 0.0068	0.7108 ± 0.0075	0.7403 ± 0.0083
313 K	0.501 ± 0.0037	0.514 ± 0.0039	0.5301 ± 0.0042	0.5472 ± 0.0046	0.5654 ± 0.005	0.5824 ± 0.0055	0.6012 ± 0.006	0.6267 ± 0.0067	0.648 ± 0.0073
323 K	0.4471 ± 0.0034	0.4595 ± 0.0036	0.4735 ± 0.0038	0.4858 ± 0.0041	0.5011 ± 0.0045	0.5177 ± 0.0049	0.5355 ± 0.0054	0.5569 ± 0.006	0.5778 ± 0.0066

O=S(Cl)Cl + c1ccccc1
298.15 K, 101 kPa
Conditions	viscosity [mPa·s]
x1 = 0.181	0.5962 ± 0.015
x1 = 0.366	0.5999 ± 0.015
x1 = 0.481	0.602 ± 0.016
x1 = 0.686	0.6068 ± 0.016
x1 = 0.877	0.6165 ± 0.016
